Assay results published in ChEMBL document CHEMBL3853262 (Medchemcomm, 2016).

Columns and labels:
Format in all cases: functional, cell-based
BXPC-3 = experiment: Proapoptotic activity in human BxPC3 cells by annexin V-FITC/propidium iodide staining-based capillary cytometric method
BJ = experiment: Proapoptotic activity in human BJ cells by annexin V-FITC/propidium iodide staining-based capillary cytometric method
ASPC1 = experiment: Proapoptotic activity in human AsPC1 cells by annexin V-FITC/propidium iodide staining-based capillary cytometric method
NTERA-2-cl-D1 = experiment: Proapoptotic activity in human NT2/D1 cells by annexin V-FITC/propidium iodide staining-based capillary cytometric method

EC50 (BXPC-3) | EC50 (ASPC1) | EC50 (NTERA-2-cl-D1) | Compound | EC50 (BJ)
28 µM | 27 µM | 13 µM | Nc1nc(-c2cccc(NC(=O)c3cc4cc(F)ccc4[nH]3)c2)c[nH]1 | 16 µM
25 µM | 19 µM | 16 µM | Nc1nc(-c2cccc(NC(=O)c3cc4cc(Cl)ccc4[nH]3)c2)c[nH]1 | 20 µM
